Results published in US7576128B2 (priority 2004, dated 2009).
Read-outs that look alike come from different tables or passages of the source.

Legend:
[1] = target: T1, hAR (human androgen receptor) (Homo sapiens, UniProt P10275); assay: Competitive binding analysis on baculovirus/Sf9 generated hAR extracts with 3H-DHT tracer
T1 construct: made in house; host or cells: baculovirus/Sf9 insect cells
T1 sequence (P10275 1-920): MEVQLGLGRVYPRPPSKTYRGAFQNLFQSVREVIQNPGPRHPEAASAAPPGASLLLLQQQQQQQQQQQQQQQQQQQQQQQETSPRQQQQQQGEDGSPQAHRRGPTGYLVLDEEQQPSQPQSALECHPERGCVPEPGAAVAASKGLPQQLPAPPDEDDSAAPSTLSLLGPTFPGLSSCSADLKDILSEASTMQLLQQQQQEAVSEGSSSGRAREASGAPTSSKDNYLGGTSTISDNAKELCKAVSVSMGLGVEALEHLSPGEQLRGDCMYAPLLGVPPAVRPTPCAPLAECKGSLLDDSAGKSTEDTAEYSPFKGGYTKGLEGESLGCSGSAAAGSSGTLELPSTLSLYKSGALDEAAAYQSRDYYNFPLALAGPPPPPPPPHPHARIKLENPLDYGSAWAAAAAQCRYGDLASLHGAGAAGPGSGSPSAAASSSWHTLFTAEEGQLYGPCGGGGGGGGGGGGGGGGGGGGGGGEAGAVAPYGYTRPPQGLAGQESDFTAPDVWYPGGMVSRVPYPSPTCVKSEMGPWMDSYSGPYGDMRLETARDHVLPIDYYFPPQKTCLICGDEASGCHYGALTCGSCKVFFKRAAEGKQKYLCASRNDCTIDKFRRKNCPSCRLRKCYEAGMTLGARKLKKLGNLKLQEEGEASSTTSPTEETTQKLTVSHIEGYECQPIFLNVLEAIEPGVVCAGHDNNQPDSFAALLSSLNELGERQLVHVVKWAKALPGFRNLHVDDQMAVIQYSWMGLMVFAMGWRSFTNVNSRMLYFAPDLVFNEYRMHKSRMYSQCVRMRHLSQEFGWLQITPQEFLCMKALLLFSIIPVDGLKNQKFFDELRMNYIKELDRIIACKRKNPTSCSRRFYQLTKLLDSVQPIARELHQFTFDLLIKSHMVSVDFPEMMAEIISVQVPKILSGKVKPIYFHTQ
Procedure: The description below describes how the assay was carried out.
Competitive binding analysis was performed on baculovirus/Sf9 generated hAR extracts in the presence or absence of different concentrations of test agent and a fixed concentration of ^3H-dihydrotestosterone (^3H-DHT) as tracer. This binding assay method is a modification of a protocol previously described (Liao S., et. al. J. Steroid Biochem. 20:11-17 1984). Briefly, progressively decreasing concentrations of compounds are incubated in the presence of hAR extract (Chang et al. P.N.A.S. Vol. 89, pp. 5546-5950,1992), hydroxylapatite, and 1 nM ^3 H-DHT for one hour at 4° C. Subsequently, the binding reactions are washed three times to completely remove excess unbound ^3 H-DHT. hAR bound ^3H-DHT levels are determined in the presence of compounds (=i.e competitive binding) and compared to levels bound when no competitor is present (=i.e. maximum binding). Compound binding affinity to the hAR is expressed as the concentration of compound at which one half of the maximum binding is inhibited.

[2] = test system: Male C3H/HeN mice; assay: Modified telogen conversion assay (hair growth, induction of anagen); assay type: in vivo; settings: topical twice daily for 4 weeks
Text: It has been discovered that male C3H/HeN mice may be used in the telogen conversion assay, when evaluating anti-androgen test compounds. Thus, the model relates to a modification of the existing telogen conversion assay. Male C3H/HeN mice approximately 7 weeks old are utilized. These animals are also uniformly in telogen, like their female counterparts. However, once shaven, the androgens inherently present in these male mice inhibit the conversion of the hair follicles to the anagen phase. An anti-androgen will block this androgenic effect and the follicles will convert to anagen, like their female counterparts.
Male C3H/HeN mice, 6 to 7 weeks old (Charles River Laboratories, Raleigh, N.C.) were used for the study. Fur was clipped from the dorsal region of the mice prior to initiation of the study. Only mice with pink skin, a visual indication of the telogen phase, were selected for inclusion in the study.
The test compound was dissolved in a vehicle consisting of propylene glycol (30%) and ethanol (70%) to achieve a concentration of either 0.2% w/v, 0.5% w/v, 1% w/v or 3% w/v. The relevant dose was applied topically to the clipped dorsal region of the mice in one test group (7-10 mice) in a volume of 20 μl/cm^2. A third group of animals received only the vehicle to serve as a control. Treatments were applied twice daily for 4 weeks.
The treatment area was observed and graded every other day for signs of hair growth. The hair growth response was quantified by recording, for each animal, the day on which signs of hair growth first appeared over the treated area. The first sign of anagen was the darkening of skin color as melanocytes in the follicles started to synthesize melanin in preparation for the production of pigmented hairs. […] The percentage of mice showing signs of hair growth in both the treatment group and the control group is graphically depicted in FIG. 1.

SMILES	IC50 ([1]; hAR extract, 1 nM 3H-DHT, one hour at 4° C., mean of multiple tests, read-out: AR Binding IC50) [nM]	IC50 [1] [nM]	rate of hair growth versus vehicle control group ([2]; 5% test group)	hair growth (induction of anagen) ([2]; concentration of 1%)
CCCCC(COc1ccc(C#N)c(C(F)(F)F)c1)C(C)O (stereo not shown) [Example 15, 4-[2-(1-Hydroxy-ethyl)-hexyloxy]-2-tri-fluoromethyl-benzonitrile]	210			
C[C@H](O)CC[C@H](C)Oc1ccc(C#N)c(C(F)(F)F)c1 [Example 23, (1S,4S)-4-(4-Hy-droxy-1-methylpentyl-oxy)-2-tri-fluoromethyl-benzonitrile]		41	did not exceed that of the vehicle control group	produced substantial hair growth
